# Measured values taken from patent publication US6706664B1, “Benzoxazole compounds, process for the preparation thereof and herbicides” (UBE Industries, Ltd., priority 1999, dated 2004).
# Key:
# Design in all cases: key: 0: normal development; 1: Less damaged; 2: Slightly damaged; 3: Moderately damaged; 4: Severely damaged; 5: All killed
# annual bluegrass = assay: Soil treatment test for upland field; type: in vivo, Poa annua; details: 500 g/ha, glass house 25° C., 3 weeks
# In short: (§1)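 Pre-emergence: seeds sown in Ube alluvial soil in pots, then soil surface sprayed with wettable-powder formulation diluted in water with 0.05% surfactant at 500 g/ha. Plants kept in glasshouse at average 25° C for 3 weeks; injury scored 0 (normal) to 5 (all killed).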
# young rice plant = assay: Herbicidal test for paddy field; type: in vivo; details: paddy field pot, 500 g/ha dropwise at 1.5 leaf stage of barnyardgrass, 3 weeks, rank vs non-treated
# In short: (§2)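 Ube alluvial soil in pots flooded to 3 cm water depth, sown with seeds or tubers. Wettable powder diluted in water with 0.05% surfactant was dripped onto the water at 500 g/ha when barnyardgrass reached the 1.5-leaf stage. After 3 weeks in a glasshouse at an average of 25° C, damage was scored 0 (normal) to 5 (all killed) against untreated pots.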
# blackgrass [1] = assay: Foliar spread test for upland field; type: in vivo, Alopecurus aegualis; details: foliar spray 500 ppm, 3 weeks, rank vs non-treated
# In short: (§3)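 Post-emergence foliar spray, 500 ppm (wettable powder in water + 0.5% surfactant), on ~2-week-old plants grown in volcanic ash soil; glasshouse, avg 25° C, 3 wk; visual damage score 0–5.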
# livid amaranth = assay: Foliar spread test for upland field; type: in vivo, Amaranthus lividus; details: foliar spray 500 ppm, 3 weeks, rank vs non-treated
# In short: as §3
# barnyardgrass = assay: Foliar spread test for upland field; type: in vivo, Echinochloa crusgalli; details: foliar spray 500 ppm, 3 weeks, rank vs non-treated
# In short: as §3
# blackgrass [2] = assay: Soil treatment test for upland field; type: in vivo, Alopecurus aegualis; details: 500 g/ha, glass house 25° C., 3 weeks
# In short: as §1
# soybean = assay: Foliar spread test for upland field; type: in vivo; details: foliar spray 500 ppm, 3 weeks, rank vs non-treated
# In short: (§4)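 Seeds are planted in pots of volcanic ash soil and grown roughly 2 weeks under glass. Foliage then receives a uniform spray of compound at 500 ppm in water with 0.5% surfactant. Herbicidal damage is rated 0–5 after 3 weeks at an average 25° C.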
# sugar beat = assay: Foliar spread test for upland field; type: in vivo; details: foliar spray 500 ppm, 3 weeks, rank vs non-treated
# In short: as §4
# wheat = assay: Foliar spread test for upland field; type: in vivo; details: foliar spray 500 ppm, 3 weeks, rank vs non-treated
# In short: as §4
# cotton = assay: Foliar spread test for upland field; type: in vivo; details: foliar spray 500 ppm, 3 weeks, rank vs non-treated
# In short: as §4
# corn = assay: Foliar spread test for upland field; type: in vivo; details: foliar spray 500 ppm, 3 weeks, rank vs non-treated
# In short: as §4
# solgum = assay: Foliar spread test for upland field; type: in vivo; details: foliar spray 500 ppm, 3 weeks, rank vs non-treated
# In short: as §4
# common lambsquartes = assay: Soil treatment test for upland field; type: in vivo, Chenopodium album; details: 500 g/ha, glass house 25° C., 3 weeks
# In short: as §1
# bulrush = assay: Herbicidal test for paddy field; type: in vivo, Scrips juncoides; details: paddy field pot, 500 g/ha dropwise at 1.5 leaf stage of barnyardgrass, 3 weeks, rank vs non-treated
# In short: as §2
Structure (SMILES),Effects Annual bluegrass (annual bluegrass),Effect Young rice plant (young rice plant),Effects Blackgrass (blackgrass [1]),Effects Livid amaranth (livid amaranth),Effects Barnyardgrass (barnyardgrass),Effects Blackgrass (blackgrass [2]),Effects Soybean (soybean),Effects Sugar beat (sugar beat),Effects Wheat (wheat),Effects Cotton (cotton),Effects Corn (corn),Effects Solgum (solgum),Effects Common lambsquarters (common lambsquartes),Effect Bulrush (bulrush)
CCCC(Oc1ccc(F)c(C(F)(F)F)c1)c1nc2cc(C(F)(F)F)ccc2o1 (stereo not drawn) [Compound 199],5,1,2,4,2,2,4,3,1,3,2,1,5,5
CCC(Oc1ccc(F)c(C(F)(F)F)c1)c1nc2cc(C(F)(F)F)ccc2o1 (stereo not drawn) [Compound 197],5,3,4,4,1,5,5,,2,3,4,2,4,
"CCCC(Oc1cccc(C(F)(F)F)c1)c1nc2cc(Cl)ccc2o1 (stereo not drawn) [Compound 142, 1-(5-chlorobenzoxazol-2-yl)-1-(3-(trifluoromethyl)phenoxy)butane]",5,1,2,4,2,5,4,3,3,3,3,2,5,3
CCC(Oc1cccc(C(F)(F)F)c1)c1nc2cc(Cl)ccc2o1 (stereo not drawn) [Compound 140],5,1,2,4,2,4,3,3,2,3,3,2,4,
CCC(Oc1ccc(F)c(C(F)(F)F)c1)c1nc2cc(Cl)ccc2o1 (stereo not drawn) [Compound 139],5,2,2,5,2,5,5,,2,3,3,2,4,5
CC(Oc1ccc(F)c(C(F)(F)F)c1)c1nc2cc(Cl)ccc2o1 (stereo not drawn) [Compound 137],5,1,,4,,3,3,5,1,2,2,1,2,3
CCC(Oc1cccc(C#N)c1)c1nc2cc(F)c(Cl)cc2o1 (stereo not drawn) [Compound 498],5,1,,4,,4,,4,2,,1,1,5,3
CCCC(Oc1cccc(C(F)(F)F)c1)c1nc2cc(F)c(C(F)(F)F)cc2o1 (stereo not drawn) [Compound 474],5,,2,5,,5,,5,2,,2,2,5,
CCCC(Oc1cccc(C(F)(F)F)c1)c1nc2cc(F)c(Cl)cc2o1 (stereo not drawn) [Compound 497],4,2,,5,,,,5,2,2,2,1,5,2
CCCC(Oc1ccc(F)c(C(F)(F)F)c1)c1nc2cc(F)c(Cl)cc2o1 (stereo not drawn) [Compound 494],5,,,5,,5,,3,1,2,2,1,4,3
CCC(Oc1cccc(C(F)(F)F)c1)c1nc2cc(C#N)c(C#N)cc2o1 (stereo not drawn) [Compound 315],5,1,2,5,,5,,5,2,,1,2,4,2
CCCC(Oc1ccc(F)c(C(F)(F)F)c1)c1nc2cc(Cl)ccc2o1 (stereo not drawn) [Compound 141],5,1,4,4,4,5,4,,2,3,2,1,5,5
